Test results: patent publication US20260021055A1, “Asymmetric Piperazine-Based Cationic Lipids” (TRANSLATE BIO, INC., priority 2022, published 2026)

Test system: hEPO protein produced in the serum
Assay: Delivery of human erythropoietin (hEPO) mRNA by intramuscular administration; hEPO protein in serum by ELISA
Type: in vivo, Mice
Settings: for in vivo protein production (hEPO protein) after delivery of hEPO mRNA: lipid nanoparticles comprising the compound, FIG. 1; for effectiveness in delivering hEPO mRNA compared with control cationic lipid: mice, intramuscular, lipid nanoparticles comprising the lipid, FIG. 1 and Table F
Procedure: For the hEPO animal dosing studies, the lipid nanoparticles (LNPs) are diluted to […] in 10% trehalose. Mice are dosed intramuscularly (IM) with 0.1 μg in 30 μL volume into right gastrocnemius muscle on the leg of the mouse. Blood samples are collected 6 hours and 24 hours post injection to measure the amount of hEPO protein produced in the serum. The hEPO protein amounts are detected using an ELISA assay from commercially available kits. Lipid nanoparticle formulations described in Table D above encapsulating hEPO mRNA were prepared by Process A as described above for intramuscular (IM) administration in accordance with the above procedure.

Row | Structure (SMILES) | in vivo protein production (hEPO protein) after delivery of hEPO mRNA | effectiveness in delivering hEPO mRNA compared with control cationic lipid
1 | CCCCCCCC/C=C\CCCCCCC(O)CN(CCCCSSCCCN1CC(C)N(CCOC(=O)CCCN(CC(O)CCCCCCCCCC)CC(O)CCCCCCCCCC)CC1C)CC(O)CCCCCC/C=C\CCCCCCCC (stereo not shown) [Compound B1] | high levels of in vivo protein production | more effective in delivering hEPO mRNA than the control cationic lipid DLin-MC3-DMA
2 | CCCCCCCC/C=C\CCCCCCC(O)CN(CCCCSSCCCCN1CC(C)N(CCOC(=O)CCCN(CC(O)CCCCCCCCCC)CC(O)CCCCCCCCCC)CC1C)CC(O)CCCCCC/C=C\CCCCCCCC (stereo not shown) [Compound C1] | high levels of in vivo protein production | more effective in delivering hEPO mRNA than the control cationic lipid DLin-MC3-DMA
